In patent US9675629B2, “PH-responsive nanoparticle using mussel adhesive protein for drug delivery and method for preparing the same” (POSTECH ACADEMY-INDUSTRY FOUNDATION, priority 2015, dated 2017):

Tested on: HeLa cells
Assay: Cellular uptake evaluation, cell imaging and flow cytometer analysis
Assay type: cell-based
Details: DOX 2 μg/mL
Description: For cellular uptake evaluation, cell imaging and flow cytometer analysis were performed. For cell imaging, free DOX and DOX-loaded mfp-1 nanoparticles (DOX concentration 2 μg/mL) were treated for 1 and 3 hours into each cell culture medium after initial cell seeding on 24-well culture plate. Before observation, cells were stained with 5 μg/mL of Hoechst 33258 (Sigma) solution for 30 minutes to clearly discriminate cell nucleus from cytosol. Cell nucleus and location of DOX were observed using fluorescence microscopy (Olympus). Cells treated by same condition with imaging procedures were collected for flow cytometry analysis after detachment by 0.25% trypsin-EDTA treatment. Fluorescence intensity of DOX in the collected cells resuspended in 1 mL PBS was examined by fluorescence scanning with 1×10^4 cells under PerCP-Cy5.5 filter (488 nm excitation and 630 nm emission). Calibration was performed using non-treated cells.

Structure (SMILES): COc1cccc2c1C(=O)c1c(O)c3c(c(O)c1C2=O)C[C@@](O)(C(=O)CO)C[C@@H]3O[C@H]1C[C@H](N)[C@H](O)[C@H](C)O1 [free DOX, doxorubicin]
- fluorescence intensity of DOX in cells, flow cytometry (1 and 3 hours): higher than DOX-loaded mfp-1 nanoparticles-treated cells
- location of DOX in cells, fluorescence microscopy (treated for 1 hour): spread over the whole cell area
